Measured values taken from paper PMC9463489 (Journal of Pharmaceutical Analysis, 2022).
Several values for one entry are separate records, joined by “and”; a condition that tells them apart may be missing. Equal values may be shown once.

Experiments:
[1] = target: T1, human pancreatic lipase (hPL) (Homo sapiens, UniProt P16233); assay: fluorescence-based hPL inhibition assay; format: biochemical; details: 4-MUO 5 μM, 37 °C, 20 min; for IC50: pIC50, hPL-catalyzed 4-MUO hydrolysis; for pIC50: hPL-catalyzed 4-MUO hydrolysis
T1 sequence (P16233 17-465): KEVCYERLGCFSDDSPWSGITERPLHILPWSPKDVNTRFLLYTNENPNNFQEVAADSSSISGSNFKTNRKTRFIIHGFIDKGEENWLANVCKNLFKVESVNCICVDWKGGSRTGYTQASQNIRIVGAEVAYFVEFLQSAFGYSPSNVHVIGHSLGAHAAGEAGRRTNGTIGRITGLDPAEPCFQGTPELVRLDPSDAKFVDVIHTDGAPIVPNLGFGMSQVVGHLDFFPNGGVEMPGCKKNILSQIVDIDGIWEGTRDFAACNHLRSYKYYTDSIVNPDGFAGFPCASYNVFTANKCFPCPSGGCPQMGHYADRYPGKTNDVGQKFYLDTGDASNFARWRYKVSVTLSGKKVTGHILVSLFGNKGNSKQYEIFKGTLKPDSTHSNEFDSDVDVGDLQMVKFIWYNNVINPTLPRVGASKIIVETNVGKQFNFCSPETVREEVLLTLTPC

α-glucosidase = details: ref [50], [51], [52]; cited from earlier work
[2] = target: T1, human pancreatic lipase (hPL); assay: inhibition kinetics against hPL-catalyzed 4-MUO hydrolysis; format: biochemical; details: for Inhibition mode: Lineweaver-Burk and secondary plots

Compound | IC50 [1] [nM] | also measured
C[C@@H]1O[C@@H](Oc2c(-c3ccc(O)c(O)c3)oc3cc(O)cc(O)c3c2=O)[C@H](O)[C@H](O)[C@H]1O [Quercitrin, quercitrin] | > 100000 | –
O=C(O[C@@H]1Cc2c(O)cc(O)cc2O[C@@H]1c1ccc(O)c(O)c1)c1cc(O)c(O)c(O)c1 [ECG, epicatechin gallate] | 162 | inhibitory effects against α-glucosidase (α-glucosidase): strong inhibitory effects
O=C1C[C@@H](c2ccc(O)c(O)c2)Oc2cc(O)cc(O)c21 [Eriodictyol, eriodictyol] | > 100000 | –
Oc1cc(O)c2c(c1)O[C@H](c1ccc(O)c(O)c1)[C@H](O)C2 [Epicatechin, epicatechin] | > 100000 | –
O=c1c(O)c(-c2ccc(O)cc2)oc2cc(O)cc(O)c12 [Kaempferol, kaempferol] | 27500 | –
O=c1cc(-c2ccc(O)c(O)c2)oc2cc(O)cc(O)c12 [Luteolin, luteolin] | 776 | inhibitory effects against α-glucosidase (α-glucosidase): strong inhibitory effects
O=C(O)[C@H]1O[C@@H](Oc2c(-c3ccc(O)c(O)c3)oc3cc(O)cc(O)c3c2=O)[C@H](O)[C@@H](O)[C@@H]1O [Quercetin-3-O-glucuronide, quercetin-3-O-glucuronide] | – | pIC50 [1]: <4
O=c1cc(-c2ccc(O)c(O)c2)oc2cc(O[C@@H]3O[C@H](CO)[C@@H](O)[C@H](O)[C@H]3O)cc(O)c12 [Luteolin-7-O-β-D-glucoside, luteolin-7-O-β-D-glucoside] | – | pIC50 [1]: <4
C[C@@H]1O[C@@H](Oc2cc(O)c3c(=O)c(O)c(-c4ccc(O)cc4)oc3c2O)[C@H](O)[C@H](O)[C@H]1O [Rhodionin, rhodionin] | > 100000 | –
catechin gallate [CG] | – | Inhibition mode [2]: non-competitive
O=C(O)/C=C/c1ccc(O)cc1 [p-coumaric acid] | > 100000 | –
O=c1c(O[C@@H]2O[C@H](CO)[C@@H](O)[C@H](O)[C@H]2O)c(-c2ccc(O)c(O)c2)oc2cc(O)cc(O)c12 [Quercetin-3-O-glucoside, quercetin-3-O-glucoside] | > 100000 | –
O=c1c(O)c(-c2ccc(O)c(O)c2)oc2cc(O)cc(O)c12 [Quercetin, quercetin] | – | inhibitory effects against α-glucosidase (α-glucosidase): strong inhibitory effects
COc1cc(/C=C/C(=O)O)ccc1O [Ferulic acid, ferulic acid] | – | pIC50 [1]: <4
O=C(OC[C@H]1O[C@@H](OC(=O)c2cc(O)c(O)c(O)c2)[C@H](OC(=O)c2cc(O)c(O)c(O)c2)[C@@H](OC(=O)c2cc(O)c(O)c(O)c2)[C@@H]1OC(=O)c1cc(O)c(O)c(O)c1)c1cc(O)c(O)c(O)c1 [PGG, 1,2,3,4,6-penta-O-galloyl-β-D-glucopyranose] | 25.7 | Inhibition mode [2]: non-competitive; Ki ([2]; inhibition constant (Ki)): 12 nM and < 100 nM
